Laboratory results: patent publication US9144239B2, “Macrocyclic picolinamides as fungicides” (DOW AGROSCIENCES LLC, priority 2012, dated 2015)
Read-outs that look alike come from different tables or passages of the source.

Experiments:
Type in all cases: in vivo
[1] = system: Erysiphe cichoracearum; assay: Fungicidal activity: powdery mildew of cucumber (ERYSCI); conditions: Golovinomyces cichoracearum, 24 h, 1 Day Protectant, read-out: Disease Control ERYSCI 1DP
Protocol: Technical grades of materials were dissolved in acetone, which were then mixed with nine volumes of water containing 110 ppm Triton X-100. The fungicide solutions were applied onto wheat seedlings using an automated booth sprayer to run-off. All sprayed plants were allowed to air dry prior to further handling. Wheat plants (variety Yuma) were grown from seed in a greenhouse in 50% mineral soil/50% soil-less Metro mix until the first leaf was fully emerged, with 7-10 seedlings per pot. These plants were inoculated with an aqueous spore suspension of Septoria tritici either prior to or after fungicide treatments. After inoculation the plants were kept in 100% relative humidity (one day in a dark dew chamber followed by two to three days in a lighted dew chamber at 20° C.) to permit spores to germinate and infect the leaf. The plants were then transferred to a greenhouse set at 20° C. for disease to develop. When disease symptoms were fully expressed on the 1st leaves of untreated plants, infection levels were assessed on a scale of 0 to 100 percent disease severity. Percent disease control was calculated using the ratio of disease severity on treated plants relative to untreated plants. Evaluation of Fungicidal Activity: Powdery Mildew of Cucumber (Erysiphe cichoracearum; Bayer Code […]) Cucumber seedlings (variety Bush Pickle) were grown in soil-less Metro mix, with one plant per pot, and used in the test when 12 to 14 days old. Plants were inoculated with a spore suspension 24 hr following fungicide treatments. After inoculation the plants remained in the greenhouse set at 20° C. until disease was fully expressed. Fungicide formulation, application and disease assessment on the sprayed leaves followed the procedures as described in the Example A.

[2] = system: Puccinia triticina; synonym: Puccinia recondita f. sp. tritici; assay: Fungicidal activity: wheat brown rust (PUCCRT), wheat seedlings; conditions: 100 ppm, wheat
Method in brief: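 Wheat (Yuma) seedlings at first-leaf stage, inoculated with Puccinia triticina spores before or after treatment, held overnight in dark dew room at 22° C, 100% RH, then greenhouse at 24° C. Acetone solutions diluted with nine volumes water containing 110 ppm Triton X-100, sprayed to run-off. Percent disease control derived from severity (0–100%) relative to untreated plants.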

[3] = system: Venturia inaequalis; assay: Fungicidal activity: apple scab (VENTIN); conditions: 24 h, 1 Day Protectant, read-out: Disease Control VENTIN 1 DP
Protocol: Technical grades of materials were dissolved in acetone, which were then mixed with nine volumes of water containing 110 ppm Triton X-100. The fungicide solutions were applied onto wheat seedlings using an automated booth sprayer to run-off. All sprayed plants were allowed to air dry prior to further handling. Wheat plants (variety Yuma) were grown from seed in a greenhouse in 50% mineral soil/50% soil-less Metro mix until the first leaf was fully emerged, with 7-10 seedlings per pot. These plants were inoculated with an aqueous spore suspension of Septoria tritici either prior to or after fungicide treatments. After inoculation the plants were kept in 100% relative humidity (one day in a dark dew chamber followed by two to three days in a lighted dew chamber at 20° C.) to permit spores to germinate and infect the leaf. The plants were then transferred to a greenhouse set at 20° C. for disease to develop. When disease symptoms were fully expressed on the 1st leaves of untreated plants, infection levels were assessed on a scale of 0 to 100 percent disease severity. Percent disease control was calculated using the ratio of disease severity on treated plants relative to untreated plants. Evaluation of Fungicidal Activity: Apple Scab (Venturia inaequalis; Bayer Code […]) Apple seedlings (variety McIntosh) were grown in soil-less Metro mix, with one plant per pot. Seedlings with two expanding young leaves at the top (older leaves at bottom of the plants were trimmed) were used in the test. Plants were inoculated with a spore suspension of Venturia inaequalis 24 hr after fungicide treatment and kept in a 22° C. dew chamber with 100% RH for 48 hr, and then moved to a greenhouse set at 20° C. for disease to develop. Fungicide formulation, application and disease assessment on the sprayed leaves followed the procedures as described in the Example A.

[4] = system: Phakopsora pachyrhizi; assay: Fungicidal activity: Asian soybean rust (PHAKPA); conditions: 25 ppm; for Disease Control PHAKPA 1DP: 1 Day Protectant; for Disease Control PHAKPA 3DC: 3 Day Curative
Protocol: Evaluation of Fungicidal Activity: Asian Soybean Rust (Phakopsora pachyrhizi; Bayer Code […]) Technical grades of materials were dissolved in acetone, which were then mixed with nine volumes of water containing 0.011% Tween 20. The fungicide solutions were applied onto soybean seedlings using an automated booth sprayer to run-off. All sprayed plants were allowed to air dry prior to further handling. Soybean plants (variety Williams 82) were grown in soil-less Metro mix, with one plant per pot. Two weeks old seedlings were used for testing. […] Plants were incubated for 24 h in a dark dew room at 22° C. and 100% RH then transferred to a growth room at 23° C. for disease to develop. Disease severity was assessed on the sprayed leaves.

[5] = 24 h, 1 Day Protectant, read-out: Disease Control PUCCRT 1DP
[6] = 72 h, 3 Day Curative, read-out: Disease Control PUCCRT 3DC

For `COc1ccnc(C(=O)N[C@H]2COC[C@H](Oc3ccc(F)cc3)[C@@H](Oc3ccc(F)cc3)[C@H](C)OC2=O)c1OC(C)=O` [Compound 229, 2-(((3S,7S,8S,9S)-7,8-bis(4-fluorophenoxy)-9-methyl-2-oxo-1,5-dioxonan-3-yl)carbamoyl)-4-methoxypyridin-3-yl acetate], which pest or weed control at 100 ppm [1] is on record?
Its pest or weed control at 100 ppm is 0 to 80%.

What does the source list for `CCCCO[C@H]1COC[C@H](NC(=O)c2nccc(OC)c2OCOC(C)=O)C(=O)O[C@@H](C)[C@@H]1OCC(F)F` [Compound 55]?
pest or weed control at 100 ppm [2, 5]: 80 to 100%; pest or weed control at 100 ppm [2, 6]: 80 to 100%

`COc1ccnc(C(=O)N[C@H]2COC[C@H](OCCCc3ccccc3)[C@@H](OCCCc3ccccc3)[C@H](C)OC2=O)c1OCOC(C)=O` [Compound 60] was tested. Which pest or weed control at 100 ppm [2, 5] did it give?
The pest or weed control at 100 ppm was 80 to 100%.

And the pest or weed control at 100 ppm [2, 6]?
Its pest or weed control at 100 ppm is 80 to 100%.

And the pest or weed control at 100 ppm [3]?
The pest or weed control at 100 ppm was 0 to 80%.

Which results are given for `COc1ccnc(C(=O)N[C@H]2COC[C@H](OCC(C)C)[C@@H](Oc3ccccc3)[C@H](C)OC2=O)c1OCOC(C)=O` [Compound 85]?
pest or weed control at 100 ppm [2, 5]: 80 to 100%; pest or weed control at 100 ppm [2, 6]: 80 to 100%; pest or weed control at 100 ppm [3]: 0 to 80%; pest or weed control at 100 ppm [1]: 0 to 80%

What does the source list for `COc1ccnc(C(=O)N[C@H]2COC[C@H](Oc3ccccc3)[C@@H](OCC(C)C)[C@H](C)OC2=O)c1OCOC(C)=O` [Compound 86]?
pest or weed control at 100 ppm [2, 5]: 80 to 100%; pest or weed control at 100 ppm [2, 6]: 80 to 100%; pest or weed control at 100 ppm [3]: 0 to 80%; pest or weed control at 100 ppm [1]: 0 to 80%; Disease Control PHAKPA 1DP [4]: A (80-100); Disease Control PHAKPA 3DC [4]: A (80-100)

How did the pest or weed control at 100 ppm [2, 6] turn out when `COc1ccnc(C(=O)N[C@H]2COC[C@H](OC)[C@@H](OC)[C@H](C)OC2=O)c1OCOC(C)=O` [Compound 65] was run?
The pest or weed control at 100 ppm was 0 to 80%.

How did the pest or weed control at 100 ppm [2, 5] turn out when `CCC(C)(C)O[C@H]1COC[C@H](NC(=O)c2nccc(OC)c2OCOC(C)=O)C(=O)O[C@@H](C)[C@@H]1OCC(C)C` [Compound 78] was run?
The pest or weed control at 100 ppm was 80 to 100%.

And the pest or weed control at 100 ppm [2, 6]?
The pest or weed control at 100 ppm was 80 to 100%.

And the pest or weed control at 100 ppm [3]?
The pest or weed control at 100 ppm was 80 to 100%.

And the pest or weed control at 100 ppm [1]?
The pest or weed control at 100 ppm was 80 to 100%.

And the “Disease Control PHAKPA 1DP” value [4]?
Its value is “A (80-100)”.

Which results are given for `CCCO[C@H]1[C@H](C)OC(=O)[C@@H](NC(=O)c2nccc(OC)c2OCOC(C)=O)COC[C@@H]1Oc1ccccc1` [Compound 222]?
pest or weed control at 100 ppm [2, 5]: 80 to 100%; pest or weed control at 100 ppm [2, 6]: 80 to 100%; Disease Control PHAKPA 1DP [4]: A (80-100); Disease Control PHAKPA 3DC [4]: A (80-100)

`COc1ccnc(C(=O)N[C@H]2COC[C@H](OC(=O)C(C)C)[C@@H](OC(=O)C(C)C)[C@H](C)OC2=O)c1OCOC(C)=O` [Compound 57] was tested. Which pest or weed control at 100 ppm [2, 5] did it give?
Its pest or weed control at 100 ppm is 80 to 100%.

And the pest or weed control at 100 ppm [2, 6]?
The pest or weed control at 100 ppm was 80 to 100%.

And the pest or weed control at 100 ppm [1]?
The pest or weed control at 100 ppm was 0 to 80%.

Which results are given for `COc1ccnc(C(=O)N[C@H]2COC[C@H](OCC(C)C)[C@@H](OC3CCCCC3)[C@H](C)OC2=O)c1OCOC(C)=O` [Compound 77]?
pest or weed control at 100 ppm [2, 5]: 80 to 100%; pest or weed control at 100 ppm [2, 6]: 80 to 100%; pest or weed control at 100 ppm [3]: 0 to 80%; pest or weed control at 100 ppm [1]: 0 to 80%; Disease Control PHAKPA 1DP [4]: B (More than 0-Less than 80)

`COc1ccnc(C(=O)N[C@H]2COC[C@H](Oc3ccc(F)cc3)[C@@H](Oc3ccc(F)cc3)[C@H](C)OC2=O)c1OCOC(C)=O` [Compound 231] was tested. Which pest or weed control at 100 ppm [3] did it give?
The pest or weed control at 100 ppm was 0 to 80%.

What about the pest or weed control at 100 ppm [1] of the same compound?
The pest or weed control at 100 ppm was 0 to 80%.

With `COc1ccnc(C(=O)N[C@H]2COC[C@H](OCC(C)C)[C@@H](OCC(C)C)[C@H](C)OC2=O)c1OCOC(C)=O` [Compound 3, (2-((3S,7S,8S,9S)-7,8-diisobutoxy-9-methyl-2-oxo-1,5-dioxonan-3-ylcarbamoyl)-4-methoxypyridin-3-yloxy)methyl] as the compound, how does the pest or weed control at 100 ppm [2, 5] read?
Its pest or weed control at 100 ppm is 80 to 100%.

What about the pest or weed control at 100 ppm [2, 6] of the same compound?
The pest or weed control at 100 ppm was 80 to 100%.

What about the pest or weed control at 100 ppm [3] of the same compound?
Its pest or weed control at 100 ppm is 0 to 80%.

What about the pest or weed control at 100 ppm [1] of the same compound?
The pest or weed control at 100 ppm was 0 to 80%.

What about the “Disease Control PHAKPA 1DP” value [4] of the same compound?
The value was “A (80-100)”.

With `COc1ccnc(C(=O)N[C@H]2COC[C@H](OCCCC(F)(F)F)[C@@H](OCCCC(F)(F)F)[C@H](C)OC2=O)c1OCOC(C)=O` [Compound 68] as the compound, how does the pest or weed control at 100 ppm [2, 5] read?
The pest or weed control at 100 ppm was 80 to 100%.

What about the pest or weed control at 100 ppm [2, 6] of the same compound?
The pest or weed control at 100 ppm was 80 to 100%.

And the pest or weed control at 100 ppm [3]?
Its pest or weed control at 100 ppm is 0 to 80%.

And the pest or weed control at 100 ppm [1]?
Its pest or weed control at 100 ppm is 0 to 80%.

Which results are given for `COc1ccnc(C(=O)N[C@H]2COC[C@H](Oc3ccccc3)[C@@H](Oc3ccccc3)[C@H](C)OC2=O)c1OCOC(C)=O` [Compound 84]?
pest or weed control at 100 ppm [2, 5]: 80 to 100%; pest or weed control at 100 ppm [2, 6]: 80 to 100%; pest or weed control at 100 ppm [3]: 0 to 80%; pest or weed control at 100 ppm [1]: 0 to 80%; Disease Control PHAKPA 1DP [4]: A (80-100); Disease Control PHAKPA 3DC [4]: A (80-100)

How did the pest or weed control at 100 ppm [2, 5] turn out when `COc1ccnc(C(=O)N[C@H]2COC[C@H](OCC(C)C)[C@@H](OCC(C)C)[C@H](C)OC2=O)c1OCOC(=O)C(C)C` [Compound 2] was run?
Its pest or weed control at 100 ppm is 80 to 100%.

What about the pest or weed control at 100 ppm [2, 6] of the same compound?
The pest or weed control at 100 ppm was 80 to 100%.

What about the pest or weed control at 100 ppm [1] of the same compound?
The pest or weed control at 100 ppm was 80 to 100%.

`COc1ccnc(C(=O)NC2COC[C@H](OCc3ccccc3)[C@@H](OCc3ccccc3)[C@H](C)OC2=O)c1OCOC(C)=O` (stereo partly drawn) [Compound 12] was tested. Which pest or weed control at 100 ppm [2, 5] did it give?
The pest or weed control at 100 ppm was 80 to 100%.

What about the pest or weed control at 100 ppm [2, 6] of the same compound?
Its pest or weed control at 100 ppm is 80 to 100%.

What about the pest or weed control at 100 ppm [3] of the same compound?
The pest or weed control at 100 ppm was 0 to 80%.

`CCCCO[C@H]1COC[C@H](NC(=O)c2nccc(OC)c2OCOC(C)=O)C(=O)O[C@@H](C)[C@@H]1OCCOC` [Compound 54] was tested. Which pest or weed control at 100 ppm [2, 5] did it give?
The pest or weed control at 100 ppm was 80 to 100%.

And the pest or weed control at 100 ppm [2, 6]?
Its pest or weed control at 100 ppm is 80 to 100%.

With `CCCO[C@H]1COC[C@H](NC(=O)c2nccc(OC)c2OCOC(C)=O)C(=O)O[C@@H](C)[C@@H]1Oc1ccccc1` [Compound 221] as the compound, how does the pest or weed control at 100 ppm [2, 5] read?
Its pest or weed control at 100 ppm is 80 to 100%.

What about the pest or weed control at 100 ppm [2, 6] of the same compound?
The pest or weed control at 100 ppm was 80 to 100%.

What about the “Disease Control PHAKPA 1DP” value [4] of the same compound?
The value was “A (80-100)”.

And the “Disease Control PHAKPA 3DC” value [4]?
The value was “A (80-100)”.
